From patent publication US7176352B1, “Transgenic Lemnaceae” (Yeda Research and Development Company Ltd., priority 1997, dated 2007)

How the values were obtained:
[1] = system: Calli of Spirodela punctata var. Helgm; test: Regeneration of plants from Spirodela calli; assay type: in vivo; conditions: B-5 medium, 1% sucrose, scored after 2 weeks; for Regenerating calli No.: 30 calli
Method: Spirodela calli were maintained on B-5 medium (Table 6 below) supplemented with 1.0% sucrose, 3 mg/l 2IP and 10 mg/l 2,4-D. For regeneration, calli were transferred to B-5 medium supplemented with 1,0% sucrose and 2 mg/l 2IP. Fully regenerated S. punctata plants were efficiently obtained within 1–2 weeks. Spirodela calli and the regenerated plants, were grown at 26° C. under continuous fluorescent light (30 μE m^−2s^−1).
Calli of Spirodela punctata var. Helgm, maintained for 7 to 16 weeks on B-5 medium supplemented with 1% sucrose, […] 2IP and 10 mg/l 2,4-D, were transferred to B-5 medium supplemented with 1% sucrose and different concentrations of 2IP. Regenerated plants were visually scored after 2 weeks.

[2] = system: Spirodela punctata plants; test: GUS expression of transformed plants grown on kanamycin or BASTA supplemented SP medium; assay type: in vivo; conditions: supplement 2 μg/ml in SP medium, 2 to 5 weeks
Method: The method involved wounding plants, co-cultivating them with 5×10^8 bacteria ml^−1 (A. tumefaciens strain EHA105 harboring Ti plasmid pME504) for 30 min. and vacuum infiltration (30 mbar, for 5–10 min). Transformed Spirodela punctata plants were grown in SP medium (Table 2) supplemented with 2 μg/ml kanamycin for 2 to 5 weeks. Six green plants resistant to kanamycin, and a sampling of bleached ones, were assayed for GUS expression.

SMILES: CC(C)=CCNc1ncnc2nc[nH]c12 [2 IP]
- Regenerating calli (%) ([1]; 2 IP 2 mg/l): 73%
- Regenerating calli No. ([1]; 2 IP 2 mg/l): 22
- Regenerating calli (%) ([1]; 2 IP 10 mg/l): 0%
- Regenerating calli No. ([1]; 2 IP 10 mg/l): 0

SMILES: NC[C@H]1O[C@H](O[C@H]2[C@H](O)[C@@H](O[C@H]3O[C@H](CO)[C@@H](O)[C@H](N)[C@H]3O)[C@H](N)C[C@@H]2N)[C@H](O)[C@@H](O)[C@@H]1O [Kanamycin]
- GUS expression (% fronds) Bleached plants ([2]; bleached plants): 0 % fronds
- GUS expression (% fronds) Green plants ([2]; green resistant plants): 83 % fronds
